Results reported in ChEMBL document CHEMBL1136165, “Carbonic anhydrase activators. The selective serotonin reuptake inhibitors fluoxetine, sertraline and citalopram are strong activators of isozymes I and II” (Bioorg Med Chem Lett, 2003).

Assays:
[1] = molecular target: Carbonic anhydrase 2 (Homo sapiens) (UniProt P00918); experiment: Maximal activatory effect against human carbonic anhydrase II (hCA II)
[2] = molecular target: Carbonic anhydrase 1 (Homo sapiens) (UniProt P00915); experiment: Maximal activatory effect against human carbonic anhydrase I (hCA I)
[3] = molecular target: Carbonic anhydrase 1 (Homo sapiens) (UniProt P00915); experiment: Maximal activatory effect against human carbonic anhydrase I (hCA I) at a concentration of 1 uM
[4] = molecular target: Carbonic anhydrase 1 (Homo sapiens) (UniProt P00915); experiment: Maximal activatory effect against human carbonic anhydrase I (hCA I) at a concentration of 1 mM

Carbonic anhydrase 1 (Homo sapiens), sequence (P00915 2-261 limits assumed): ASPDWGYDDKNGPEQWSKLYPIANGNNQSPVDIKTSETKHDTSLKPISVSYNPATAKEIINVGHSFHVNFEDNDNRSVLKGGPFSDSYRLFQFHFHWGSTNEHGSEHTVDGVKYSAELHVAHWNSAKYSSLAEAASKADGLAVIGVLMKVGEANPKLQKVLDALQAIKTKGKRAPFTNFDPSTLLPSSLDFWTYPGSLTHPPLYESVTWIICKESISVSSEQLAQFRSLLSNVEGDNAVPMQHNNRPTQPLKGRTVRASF

| SMILES | Activity [1] [%] | Activity [2] [%] | Activity [3] [%] | Activity [4] [%] |
| --- | --- | --- | --- | --- |
| N[C@@H](Cc1ccccc1)C(=O)O | 210 | 160 |  |  |
| CN(C)CCCC1(c2ccc(F)cc2)OCc2cc(C#N)ccc21 (stereo not given) |  | 148 | 134 |  |
| NCCc1c[nH]cn1 |  |  | 165 | 185 |
| CNCCC(Oc1ccc(C(F)(F)F)cc1)c1ccccc1 (stereo not given) |  |  | 175 | 210 |
| CN[C@H]1CC[C@@H](c2ccc(Cl)c(Cl)c2)c2ccccc21 |  | 165 | 145 |  |
